Experimental data reported in PubChem BioAssay (NCI).
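Protocol summary: plate cells (96-well), add compound at 5 concentrations, incubate 48 h, interpolate endpoints linearly. TGI: total growth inhibition.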

Columns and labels:
Test in all cases: growth of human tumour cells (NCI), 48 h
OVCAR-3 ovarian = test system: OVCAR-3 ovarian
OVCAR-4 ovarian = test system: OVCAR-4 ovarian
UO-31 renal = test system: UO-31 renal
MDA-N = test system: MDA-N
NCI-H23 lung = test system: NCI-H23 lung
SK-MEL-5 melanoma = test system: SK-MEL-5 melanoma
HCT-116 colon = test system: HCT-116 colon
A549 NSCLC = test system: A549 NSCLC
A498 renal = test system: A498 renal
UACC-62 melanoma = test system: UACC-62 melanoma
OVCAR-5 ovarian = test system: OVCAR-5 ovarian
MDA-MB-231 breast = test system: MDA-MB-231 breast
U251 CNS = test system: U251 CNS
NCI-H226 lung = test system: NCI-H226 lung
LOX IMVI melanoma = test system: LOX IMVI melanoma
COLO 205 colon = test system: COLO 205 colon
SNB-75 CNS = test system: SNB-75 CNS
HS 578T breast = test system: HS 578T breast
HCT-15 colon = test system: HCT-15 colon
UACC-257 melanoma = test system: UACC-257 melanoma
SK-MEL-2 melanoma = test system: SK-MEL-2 melanoma
SN12C renal = test system: SN12C renal
KM12 colon = test system: KM12 colon
786-0 renal = test system: 786-0 renal
RPMI-8226 leukemia = test system: RPMI-8226 leukemia
OVCAR-8 ovarian = test system: OVCAR-8 ovarian
IGROV1 ovarian = test system: IGROV1 ovarian
TK-10 renal = test system: TK-10 renal
EKVX NSCLC = test system: EKVX NSCLC
NCI/ADR-RES ovarian = test system: NCI/ADR-RES ovarian
HOP-62 NSCLC = test system: HOP-62 NSCLC
MOLT-4 leukemia = test system: MOLT-4 leukemia
ACHN renal = test system: ACHN renal
HT29 colon = test system: HT29 colon
SR leukemia = test system: SR leukemia
K-562 leukemia = test system: K-562 leukemia
MDA-MB-435 = test system: MDA-MB-435
SF-268 CNS = test system: SF-268 CNS
SF-539 CNS = test system: SF-539 CNS
MCF7 breast = test system: MCF7 breast
CCRF-CEM leukemia = test system: CCRF-CEM leukemia
SNB-19 CNS = test system: SNB-19 CNS
MALME-3M melanoma = test system: MALME-3M melanoma
SK-OV-3 ovarian = test system: SK-OV-3 ovarian
M14 melanoma = test system: M14 melanoma
DU-145 prostate = test system: DU-145 prostate
PC-3 prostate = test system: PC-3 prostate
SK-MEL-28 melanoma = test system: SK-MEL-28 melanoma
SF-295 CNS = test system: SF-295 CNS
SW-620 colon = test system: SW-620 colon
RXF 393 renal = test system: RXF 393 renal
NCI-H460 lung = test system: NCI-H460 lung
HL-60(TB) leukemia = test system: HL-60(TB) leukemia
CAKI-1 renal = test system: CAKI-1 renal
HCC-2998 colon = test system: HCC-2998 colon
NCI-H522 lung = test system: NCI-H522 lung

Measured: TGI

CC(=O)Oc1cc2oc(=O)cc(C)c2cc1OC(C)=O
not listed: RXF 393 renal | NCI-H460 lung | HL-60(TB) leukemia | CAKI-1 renal | HCC-2998 colon | NCI-H522 lung
> 100 µM: all other assays above

O=S(CCc1ccccc1)Nc1ccccc1 (stereo unspecified)
not listed: OVCAR-4 ovarian | A498 renal | UACC-62 melanoma | SK-MEL-2 melanoma | SK-OV-3 ovarian
> 100 µM: all other assays above
